Among the test systems are UACC-62; KM12; SN12C; IGROV-1; OVCAR-3; SF-268; SK-MEL-28; MDA-MB-231; ACHN; BT-549; CAKI-1; MDA-MB-435; SK-OV-3; MOLT-4; HT-29; DU-145; NCI-H23; K562; Malme-3M.
Assay in all cases: DTP human tumour cell line panel, 48 h

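48-hour exposure; five concentrations; linearly interpolated endpoints. At the GI50, growth is halved.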 The source made the active and inactive calls. Cut-off read from the data, not from the text of the source: active = GI50 up to about 1.1 µM and inactive = higher. Residues, ends and D or L forms follow the SMILES beside them. *: point of attachment. Boc = CC(C)(C)OC(=O)* Where only a bound is given, the exact number is not on record here.

Regarding `COC(=O)[C@@H]1N2C(=S)N(c3ccccc3)C(=O)[C@H]2SC1(C)C`, the GI50 in the assay on UACC-62, in the assay with KM12, in the assay with SN12C, with IGROV-1, in the assay with OVCAR-3 and in the assay with SF-268 was > 100 µM (inactive) throughout. In addition, the GI50 in the assay on SK-MEL-28, with MDA-MB-231, in the assay on ACHN, in the assay with BT-549, with CAKI-1 and in the assay on MDA-MB-435 was > 100 µM (inactive) throughout. Also, the GI50 in the assay with SK-OV-3, in the assay with MOLT-4, with HT-29, with DU-145 and with NCI-H23 was > 100 µM (inactive) in each case.
Consider `[N-]=[N+]=Nc1cc(=O)[nH]nc1-c1ccccc1`, for which the GI50 in the assay on UACC-62, with K562, in the assay on KM12, in the assay with SN12C, in the assay on IGROV-1 and with OVCAR-3 was > 100 µM (inactive) throughout. Further, the GI50 in the assay with SF-268, in the assay on Malme-3M, with SK-MEL-28, in the assay on MDA-MB-231, in the assay on ACHN and in the assay with BT-549 was > 100 µM (inactive) each time. In addition, the GI50 in the assay on MDA-MB-435, in the assay with SK-OV-3, with MOLT-4, in the assay on HT-29, in the assay with DU-145 and with NCI-H23 was > 100 µM (inactive) each time.
Take `N#CCCN(CCN(CCN(C(=O)Nc1ccccc1)c1ccccc1)C(=O)Nc1ccccc1)C(=O)Nc1ccccc1`: the GI50 was > 100 µM (inactive) with UACC-62; 2.57 µM (inactive) with KM12; > 100 µM (inactive) in the assay with SN12C; 43.9 µM (inactive) with IGROV-1; > 100 µM (inactive) in the assay on OVCAR-3; > 100 µM (inactive) in the assay on SF-268. Also, the GI50 in the assay with SK-MEL-28 is > 100 µM (inactive); in the assay on MDA-MB-231, > 100 µM (inactive); in the assay with ACHN, 40.1 µM (inactive); in the assay on BT-549, > 100 µM (inactive); in the assay with CAKI-1, > 100 µM (inactive); with MDA-MB-435, 20.7 µM (inactive). For the same molecule, the GI50 is > 100 µM (inactive) in the assay on SK-OV-3, 4.43 µM (inactive) in the assay with MOLT-4, > 100 µM (inactive) in the assay on DU-145 and > 100 µM (inactive) in the assay with NCI-H23.
For `CC1(C)N=C(N)N=C(N)N1c1cccc(OCCOc2ccc([N+](=O)[O-])cc2)c1`, the GI50 with K562 was 41.9 µM (inactive); in the assay with KM12, 11.5 µM (inactive); in the assay with SN12C it was 6.49 µM (inactive); in the assay on IGROV-1 it was 1.96 µM (inactive); in the assay with OVCAR-3, 41.6 µM (inactive); with SF-268, 5.04 µM (inactive). The GI50 is 20.6 µM (inactive) in the assay on Malme-3M; 53.3 µM (inactive) in the assay on SK-MEL-28; > 100 µM (inactive) in the assay on MDA-MB-231; > 100 µM (inactive) in the assay on ACHN; 12.9 µM (inactive) in the assay on BT-549; > 100 µM (inactive) in the assay with CAKI-1. Also, the GI50 was 5.04 µM (inactive) in the assay with MDA-MB-435; > 100 µM (inactive) with SK-OV-3; > 100 µM (inactive) in the assay on MOLT-4; 8.24 µM (inactive) with HT-29; 20.1 µM (inactive) in the assay with DU-145; 4.9 µM (inactive) in the assay with NCI-H23.
Consider `O=C1CC(NC(=O)C(F)(F)F)c2c1csc2Br` (stereo unspecified), for which the GI50 in the assay with UACC-62 was > 100 µM (inactive); with K562, 48.3 µM (inactive); with KM12, 3.03 µM (inactive); in the assay with SN12C it was 68.4 µM (inactive); in the assay with IGROV-1 it was > 100 µM (inactive); with OVCAR-3, 2.45 µM (inactive). Moreover, the concentration for 50% growth inhibition (GI50) in the assay on SF-268 was 0.678 µM (active); in the assay on Malme-3M it was 18.8 µM (inactive); with SK-MEL-28, > 100 µM (inactive); in the assay on MDA-MB-231, > 100 µM (inactive); in the assay with ACHN it was > 100 µM (inactive); in the assay with BT-549, 44.1 µM (inactive). Also, the GI50 in the assay on MDA-MB-435 was 56.5 µM (inactive); in the assay on SK-OV-3, > 100 µM (inactive); in the assay with MOLT-4 it was 31.5 µM (inactive); in the assay with HT-29, > 100 µM (inactive); in the assay with DU-145, 2.11 µM (inactive); with NCI-H23, > 100 µM (inactive).
As for `COc1ccc(OC)c2sc(N3C(=O)/C(=C/c4ccc(SC)cc4)N=C3c3ccccc3)nc12`, the GI50 with UACC-62 is 31.5 µM (inactive); with K562, > 100 µM (inactive); in the assay on KM12 it was 20 µM (inactive); in the assay with SN12C it was 24.9 µM (inactive); with IGROV-1 it was 23.3 µM (inactive); in the assay with OVCAR-3, 20.4 µM (inactive). The GI50 in the assay with SF-268 is 14.1 µM (inactive); with SK-MEL-28, > 100 µM (inactive); with MDA-MB-231 it was > 100 µM (inactive); in the assay on ACHN it was 28.9 µM (inactive); in the assay on BT-549, 29.4 µM (inactive); in the assay on CAKI-1, 96.2 µM (inactive). The GI50 in the assay on MDA-MB-435 was 17.2 µM (inactive); in the assay on SK-OV-3 it was 30.5 µM (inactive); with MOLT-4 it was 22.3 µM (inactive); in the assay with HT-29, 23.1 µM (inactive); in the assay on DU-145 it was 39.9 µM (inactive).
For the molecule `CC(=O)OCC1OC(n2c(=O)[nH]c(=O)c3sccc32)C(Br)C1OC(C)=O` (stereo unspecified), the GI50 in the assay with K562, with KM12, with SN12C, with IGROV-1, in the assay on OVCAR-3 and in the assay with SF-268 was > 100 µM (inactive) in each case. In addition, the GI50 with Malme-3M, with SK-MEL-28, in the assay with MDA-MB-231, in the assay on ACHN, in the assay on BT-549 and in the assay with CAKI-1 was > 100 µM (inactive) throughout. In addition, the GI50 in the assay with MDA-MB-435, in the assay on MOLT-4, in the assay on HT-29, in the assay with DU-145 and in the assay on NCI-H23 was > 100 µM (inactive) each time.
Turning to `Nc1c(C(=O)O)nnc2cc(Cl)c(Cl)cc12`, the GI50 with UACC-62, in the assay with K562, in the assay with KM12, in the assay with SN12C, with IGROV-1 and in the assay on OVCAR-3 was > 100 µM (inactive) each time. In addition, the GI50 in the assay on SF-268 was > 100 µM (inactive); with Malme-3M, > 100 µM (inactive); with MDA-MB-231, > 100 µM (inactive); in the assay on ACHN it was > 100 µM (inactive); in the assay on BT-549, 72.6 µM (inactive); with CAKI-1 it was > 100 µM (inactive). For the same molecule, the GI50 in the assay with MDA-MB-435, in the assay with SK-OV-3, in the assay with MOLT-4, in the assay with HT-29, with DU-145 and in the assay on NCI-H23 was > 100 µM (inactive) in each case.
Consider `CC(C)(C)OC(=O)NC(Cc1ccc(O)cc1)C(=O)NC(CCCCN)C(=O)O` (stereo not drawn) (Boc-Tyr-Lys-OH; configuration not given here), for which the GI50 in the assay with UACC-62 is 16.5 µM (inactive); in the assay on K562 it was 35.8 µM (inactive); in the assay on SN12C, 19.9 µM (inactive); in the assay with IGROV-1, 17.3 µM (inactive); in the assay on OVCAR-3 it was 28.4 µM (inactive); in the assay with SF-268 it was 34.6 µM (inactive). The GI50 is 28.1 µM (inactive) with Malme-3M; 23.8 µM (inactive) in the assay with SK-MEL-28; 21.8 µM (inactive) with MDA-MB-231; 23.7 µM (inactive) in the assay with ACHN; 20 µM (inactive) with BT-549; > 10 µM (inactive) in the assay on CAKI-1. The GI50 with MDA-MB-435 is 20.7 µM (inactive); with MOLT-4 it was 32.8 µM (inactive); in the assay with HT-29, 47.4 µM (inactive); in the assay on DU-145 it was 27 µM (inactive); in the assay with NCI-H23, 18.5 µM (inactive).
For the molecule `C=C(C)C1CCC2(C)C1CCC1(C)C2CCC2C3(C)C4OC(OC4=O)C(C)(C)C3CCC21C` (stereo unspecified), the GI50 with UACC-62 is > 100 µM (inactive); in the assay on K562, 33 µM (inactive); in the assay with KM12, > 100 µM (inactive); in the assay with SN12C it was > 100 µM (inactive); in the assay on IGROV-1, > 100 µM (inactive); in the assay on OVCAR-3 it was > 100 µM (inactive). The GI50 in the assay with SF-268 is > 100 µM (inactive); with SK-MEL-28 it was > 100 µM (inactive); in the assay with MDA-MB-231 it was > 100 µM (inactive); with ACHN it was > 100 µM (inactive); with BT-549, > 100 µM (inactive); in the assay on CAKI-1, 92 µM (inactive). The GI50 in the assay on MDA-MB-435, in the assay with SK-OV-3, in the assay on MOLT-4, in the assay on HT-29, in the assay on DU-145 and in the assay on NCI-H23 was > 100 µM (inactive) throughout.
Regarding `Cc1nc(Nc2nc3ccccc3[nH]2)nc(Cl)c1CCCl`, the GI50 in the assay on UACC-62 was > 100 µM (inactive); in the assay with K562, > 100 µM (inactive); in the assay on KM12, > 100 µM (inactive); in the assay with SN12C, > 100 µM (inactive); in the assay with IGROV-1, > 100 µM (inactive); with SF-268, 95.7 µM (inactive). Further, the GI50 in the assay on Malme-3M, in the assay with SK-MEL-28, with MDA-MB-231, in the assay on ACHN, in the assay on BT-549 and in the assay on CAKI-1 was > 100 µM (inactive) each time. Moreover, the GI50 with MDA-MB-435, in the assay with MOLT-4, in the assay with HT-29, with DU-145 and in the assay with NCI-H23 was > 100 µM (inactive) throughout.

For orientation: GI50 means the concentration giving 50% growth inhibition.

The values above are taken from ChEMBL document CHEMBL1201862, “PubChem BioAssay data set” (2004).
